The values below are quoted from earlier work in patent US20060243184A1, “Use of waste nitrogen from air separation units for blanketing cargo and ballast tanks” (Chevron U.S.A. Inc., priority 2003, published 2006).

The conditions of the series: @ 20° C.
As to `CCCS` [Propylmercaptan], the “Water Solubility” value is listed as “Low”.

Regarding `CS` [Methylmercaptan], the “Water Solubility” value was 2.4%.

Take `CCS` [Ethylmercaptan]: the “Water Solubility” value is listed as 1.3%.
